From US11001591B2, “TRAF 6 inhibitors” (HELMHOLTZ ZENTRUM MUENCHEN—DEUTSCHES FORSCHUNGSZENTRUM FÜR …, priority 2016, dated 2021) come the findings set out here.

In data set [1] the target is interaction of Ubc13 with Uev1a (Homo sapiens, UniProt P61088+Q13404). The data set is described as follows: Ubc13-Uev1a interaction. It is filed as binding.
For data set [2], the system named is MEF, HepG2 and Jurkat cells. The data set is described as follows: Cell viability, CellTiter-Glo 2.0. It is filed as cell-based. The method, then: For cell viability experiments using the CellTiter-Glo® 2.0 system (Promega), MEF cells (1.2×10^3 cells/well), HepG2 cells (4×10^3 cells/well) and Jurkat T-cells (5×10^3 cells/well) were seeded in 384 well plates. After 18 hours, cells were treated with compounds using the Sciclone G3 automation system. After 6 or 24 hours incubation, the luciferase measurement was performed according to the manufacturer's manual.
(In general: Cellular ATP, detected with luciferase, serves as a proxy for viable cell number.)

The subject of data set [3] is TRAF6 auto-ubiquitination. The data set is described as follows: TRAF6 auto-ubiquitination in Jurkat T-cells. The format is cell-based, human. The conditions noted are these: PMA/Ionomycin.
The test system of a further data set is IL-2 and TNFα. The data set is described as follows: mRNA expression of TCR target genes in Jurkat T-cells. The format is cell-based, human. Particulars: PMA/Ionomycin. On the procedure: (§1) For MEF cells, 1.2×10^5 cells per sample were seeded, treated with compound for 6 hours and stimulated with either IL-1β or TNFα for 60 minutes. Jurkat T-cells and primary mouse CD4^+ T-cells were seeded at 2×10^5 cells per sample, also treated with compound for 6 hours and stimulated with PMA/lonomycin for 3 hours. RNA was isolated according to the manufacturer's protocol of the Qiagen RNeasy Kit (MEF cells) or the STRATEC INVITRAP® SPIN UNIVERSAL RNA MINI KIT (Jurkat T-cells). The isolation of mRNA from […] white adipose tissue from DIO mice was performed using TRIzol® Reagent according to manufacturer's instruction. To clear the isolated RNA from genomic DNA, samples (up to 5 μg RNA) were treated with RQ1 RNase-Free DNaseI (Promega) as described in the technical manual. For the reverse transcription of RNA into cDNA, the DNaseI digested RNA samples were processed using the SuperScript III First Strand cDNA Synthesis System (Invitrogen/ThermoFisher Scientific) following the manufacturer's protocol. […] For quantification of cDNA in the samples, the LightCylcer480 (Roche) and the KAPA SYBR FAST qPCR Kit were used. For relative quantification, the ΔΔCp method first described by Pfaffl (Pfaffl, M. W., A new mathematical model for relative quantification in real-time RT-PCR. Nucleic Acids Res, 2001. 29(9): p. e45) was applied.

The test system of data set [4] is primary naïve CD4+ T-cells. The data set can be described thus: IL-2 in primary murine CD4+ T-cells. Particulars: CD3/CD28 stimulation. It is filed as cell-based, mouse. The method, then: as §1, with “Jurkat T-cells and primary mouse CD4^+ T-cells were seeded at 2×10^5 cells per sample, also treated with compound for 6 hours and stimulated with PMA/lonomycin for 3 hours.” left out, “manual.” for “manual. For the reverse transcription of RNA into cDNA, the DNaseI digested RNA samples were processed using the SuperScript III First Strand cDNA Synthesis System (Invitrogen/ThermoFisher Scientific) following the manufacturer's protocol.”, “applied. […]” for “applied.”
For measurement of cytokine secretion, 2×10^5 Jurkat T-cells or primary CD4^+ T-cells or human PBMCs per sample were seeded, treated with compound for 6 hours and stimulated as indicated. 20 hours after stimulation, supernatants were harvested and analyzed with the IL-2, IL-1β and TNFα Ready-Set-Go! […]

The test system of data set [5] is IMQ-induced psoriasis, Balb/C mice. The data set can be described thus: Imiquimod (IMQ)-induced psoriasis mouse model. It is filed as in vivo. On the procedure:
To evaluate the anti-inflammatory activity of the compound C25-140 (compound 3), an Imiquimod (IMQ)-induced psoriasis mouse model was conducted by Washington Biotechnology, Inc. (Baltimore, USA). Per group, 8 male Balb/C mice were shaved in the back (1.5 cm×2 cm) and IMQ and C25-140 were applied topically to the shaved back and the right ear daily for 6 days. Thereby, C25-140 was dissolved in acetone and applied at a total dosage of 500 μg per day (2×250 μg). Mice were monitored and daily scores (erythema, scaling and thickness of back skin) were independently collected on a scale from 0 to 4:0=none; 1=slight; 2=moderate; 3=marked and 4=very marked. Ear thickness was measured by electronic calipers as an indicator of edema. IL-17 cytokine secretion of the right ear tissue was measured by ELISA.

Structures are written as SMILES.

Chain of interaction of Ubc13 with Uev1a (P61088 whole entry): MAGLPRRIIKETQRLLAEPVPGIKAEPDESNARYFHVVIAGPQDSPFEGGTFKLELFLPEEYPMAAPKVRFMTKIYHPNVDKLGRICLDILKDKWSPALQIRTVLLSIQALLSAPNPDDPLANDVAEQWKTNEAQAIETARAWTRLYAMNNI
Chain of interaction of Ubc13 with Uev1a (Q13404 whole entry): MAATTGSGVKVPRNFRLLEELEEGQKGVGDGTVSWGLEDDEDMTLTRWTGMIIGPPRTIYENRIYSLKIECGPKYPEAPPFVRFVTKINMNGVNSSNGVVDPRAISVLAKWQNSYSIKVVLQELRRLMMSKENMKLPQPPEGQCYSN

On to `Cc1nn(-c2ccc3nnc(C)n3n2)c(C)c1CCC(=O)N1CCC(Cc2ccccc2)CC1` [Compound 3, 1-(4-benzylpiperidin-1-yl)-3-(3,5-dimethyl-1-(3-methyl-[1,2,4]triazolo[4,3-b]pyridazin-6-yl)-1H-pyrazol-4-yl)propan-1-one], for which the “binding of Ubc13 to Uev1a” value in data set [1] is given as “did not affect”. For the same compound, in data set [2] (100 μM, 24 hours), the “cell viability at highest dose” value was “toxicity is noticeable”. Moreover, in data set [2] (up to 50 μM, 24 hours incubation, MEF, HepG2, Jurkat), the “metabolic activity and cell viability” value was “does not considerably affect”. Further, the “TRAF6 auto-ubiquitination upon TCR stimulation” value in data set [3] was “dose-dependently reduced”. Also, the “mRNA levels of IL-2 and TNFα” value in the data set with IL-2 and TNFα is recorded as “dose-dependently decreased”. Further, in data set [4], the “IL-2 mRNA expression” value is reported as “impaired” and the IL-2 protein secretion result was “impaired”. Besides, the “IL-17 in right ear tissue” value in data set [5] (day 6, ELISA) was “decreased”. Besides, in data set [5] (topical twice daily, 6 days), the “cumulative score (thickness, scaling, erythema of the back)” value is on record as “reduces”; the ear thickness result was “significantly reduced”; the “scaling, erythema and ear thickness scores” value is on record as “improvement of the disease symptoms”; the “thickness score of the back” value is “significantly reduce”.
